Key:
p34^cdc2/cyclin B (CDC2) = target: T1, p34^cdc2/cyclin B (CDC2) (Homo sapiens, UniProt P06493); experiment: CDK inhibition assay, p34cdc2/cyclin B kinase, histone H1 phosphorylation; assay type: biochemical
T1 construct: made in house; host or cells: Sf9 insect cells (baculovirus co-infection)
Protocol: Cyclin-dependent kinases (p34^cdc2, p33^cdk2) and cyclins (cyclin B, E) are produced in Sf9 insect cells coinfected with appropriate baculoviral constructs. The cells are harvested 68-72 hrs post infection in lysis buffer for 30 min on ice and the soluble fraction is recovered by centrifugation at 14.000 g for 10 min. The protein extract is stored at −80° C.
Lysis buffer: 50 mM Tris pH 7.4, 150 mM NaCl, 5 mM EDTA, 20 mM NaF, 1% Tween, 1 mM DTT, 0.1 mM PMSF, leupeptine, aprotonine.
To carry out experiments on kinetics under linear conditions, the final point test system for kinase activity measurement is used. The kinase is added to reaction mixture in such a way as to obtain linear activity with respect to the concentration of enzyme and with respect to time.
The p34^cdc2 and p33^cdk2 kinase inhibition determination involves the use of 1 mg/ml histone H1 (Sigma, type III-S) in the presence of 15 μM [γ-^32P]ATP ([…]) (Amersham) in a final volume of 20 μl. Kinase activity is determined at 30° C. in the kinase buffer.
Tested compounds are usually dissolved to 100 mM solutions in DMSO, final concentration of DMSO in reaction mixture never exceeds 1%. The controls contain suitable dilutions of DMSO.
After 10 min, addition 3×SDS sample buffer stops the incubations. Phosphorylated proteins are separated electrophoretically using 12.5% SDS polyacrylamide gel. The measurement of kinase activity is done using digital image analysis.
The kinase activity is expressed as a percentage of maximum activity, the apparent inhibition constants are determined by graphic analysis (FIG. 1).
Kinase buffer: 50 mM Hepes pH 7.4, 10 mM MgCl2, 5 mM EGTA, 10 mM 2-glycerolphosphate, 1 mM NaF, 1 mM DTT

IκB-α kinase = IκB-α kinase inhibitory activity, in vitro kinase assay; assay type: biochemical

T1 sequence (P06493 whole entry, species assumed): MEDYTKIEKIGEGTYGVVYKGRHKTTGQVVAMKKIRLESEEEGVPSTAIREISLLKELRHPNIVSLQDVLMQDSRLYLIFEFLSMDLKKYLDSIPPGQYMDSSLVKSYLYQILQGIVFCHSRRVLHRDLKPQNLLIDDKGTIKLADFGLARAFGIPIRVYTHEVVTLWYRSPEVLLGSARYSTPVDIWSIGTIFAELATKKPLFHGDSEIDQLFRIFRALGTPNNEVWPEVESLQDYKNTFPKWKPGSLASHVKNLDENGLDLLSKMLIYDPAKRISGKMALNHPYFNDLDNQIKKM
T1 sequence (P14635 whole entry partner, species assumed): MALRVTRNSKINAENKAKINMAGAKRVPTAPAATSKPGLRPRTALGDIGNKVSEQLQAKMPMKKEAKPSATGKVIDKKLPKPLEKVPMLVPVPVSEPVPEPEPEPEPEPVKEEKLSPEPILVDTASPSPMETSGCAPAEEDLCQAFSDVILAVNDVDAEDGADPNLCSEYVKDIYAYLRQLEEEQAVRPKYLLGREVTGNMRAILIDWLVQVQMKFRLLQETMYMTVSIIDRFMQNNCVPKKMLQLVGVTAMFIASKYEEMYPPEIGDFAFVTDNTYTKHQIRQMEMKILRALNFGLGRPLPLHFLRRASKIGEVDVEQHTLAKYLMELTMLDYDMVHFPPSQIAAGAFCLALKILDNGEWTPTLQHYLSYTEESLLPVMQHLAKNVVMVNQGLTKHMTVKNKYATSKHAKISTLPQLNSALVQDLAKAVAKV

| Compound | IC50 (p34^cdc2/cyclin B (CDC2)) | IC50 (IκB-α kinase) |
| --- | --- | --- |
| Cn1nnc2c(NCc3ccccc3)nc(NCCO)nc21 | > 100 µM | > 100 µM |
| Cn1nnc2c(NCc3c(N)cccc3Cl)nc(NCCO)nc21 | 52 µM | 68 µM |
| Cn1nnc2c(NCc3cccc(Cl)c3O)nc(NCCO)nc21 | 70 µM | > 100 µM |
| CC(C)n1nnc2c(NCc3ccccc3)nc(NCCO)nc21 | > 100 µM | > 100 µM |
| CC[C@H](CO)Nc1nc(NCc2cc(O)c(OC)cc2O)c2[nH]nc(C(C)C)c2n1 | 12 µM | > 100 µM |
| CC[C@H](CO)Nc1nc(NCc2c(O)cc(Cl)cc2O)c2nnn(C(C)C)c2n1 | 12 µM |  |
| CC[C@H](CO)Nc1nc(Nc2ccc(Br)cc2)c2nnn(C(C)C)c2n1 | 26 µM | 90 µM |
| COc1cccc(CNc2nc(NCCO)nc3c2nnn3C)c1O | 43 µM | > 100 µM |
| CC[C@H](CO)Nc1nc(NCc2ccc(OC)c(O)c2O)c2nnn(C(C)C)c2n1 | 14 µM | > 100 µM |
| CC[C@H](CO)Nc1nc(Nc2ccc(N)c(Cl)c2)c2nnn(C(C)C)c2n1 | 50 µM | > 100 µM |
| Cn1nnc2c(NC(CO)c3ccccc3)nc(NCCO)nc21 (racemic) | 80 µM | > 100 µM |
| CC(C)n1nnc2c(NCc3ccccc3)nc(NCCCO)nc21 [2-(3-Hydroxypropylamino)-6-benzylamino-9-isopropyl-8-azapurine] | > 100 µM | > 100 µM |
| COc1cccc(CNc2nc(N[C@@H](CO)C(C)C)nc3c2nnn3C(C)C)c1O | 55 µM | > 100 µM |
| CC[C@H](CO)Nc1nc(NCc2cccc(OC)c2O)c2nnn(C(C)C)c2n1 | 15 µM | 75 µM |
| CC(C)[C@H](CO)Nc1nc(NCc2cccc(Cl)c2O)c2nnn(C(C)C)c2n1 | 32 µM | 60 µM |
| CC(=O)c1cccc(CNc2nc(NCCO)nc3c2nnn3C)c1 | 80 µM | > 100 µM |
| Cn1nnc2c(NCc3ccccc3)nc(NC3CCC(N)CC3)nc21 (centres unmarked) | 16 µM | 40 µM |
| Cn1nnc2c(NCc3ccccc3)nc(NCCCN)nc21 | 90 µM | > 100 µM |
| CC[C@H](CO)Nc1nc(Nc2ccc(Cl)cc2)c2nnn(C(C)C)c2n1 | 27 µM |  |
| CC(C)[C@H](CO)Nc1nc(NCc2ccc(O)c(O)c2)c2nnn(C(C)C)c2n1 | 20 µM | > 100 µM |
| CC[C@H](CO)Nc1nc(NCc2cccc(C(C)=O)c2)c2nnn(C(C)C)c2n1 | 58 µM | > 100 µM |
| CC(C)[C@H](CO)Nc1nc(NCc2ccccc2)c2nnn(C(C)C)c2n1 | 15 µM | 50 µM |

| Compound | IC50 (p34^cdc2/cyclin B (CDC2)) | IC50 (IκB-α kinase) |
| --- | --- | --- |
| Cn1nnc2c(Nc3ccc(Cl)c(N)c3)nc(NCCO)nc21 | > 100 µM | > 100 µM |
| Cn1nnc2c(NCc3ccccc3)nc(N(CCO)CCO)nc21 |  | > 100 µM |
| Cn1nnc2c(NCc3ccccc3)nc(NC3CCCCC3N)nc21 (centres unmarked) | 25 µM | 70 µM |
| Cn1nnc2c(NCc3ccc(O)c(O)c3)nc(NCCO)nc21 |  | > 100 µM |
| CC(C)[C@H](CO)Nc1nc(NCc2c(O)cc(Cl)cc2O)c2nnn(C(C)C)c2n1 | 18 µM |  |
| CCC(CO)Nc1nc(NC(CO)c2ccccc2)c2nnn(C(C)C)c2n1 (centres unmarked) |  | > 100 µM |
| CCC(CO)Nc1nc(NCc2cccc(Cl)c2O)c2nnn(C(C)C)c2n1 (centres unmarked) | 16 µM |  |
| Cn1nnc2c(NCc3ccc(Cl)c(N)c3)nc(NCCO)nc21 | 50 µM |  |
| CC(=O)Oc1ccccc1CNc1nc(NCCO)nc2c1nnn2C | 36 µM | 40 µM |
| CC[C@H](CO)Nc1nc(NCc2ccc(Cl)c(N)c2)c2nnn(C(C)C)c2n1 | 29 µM | > 100 µM |
| CC[C@H](CO)Nc1nc(NCc2c(N)cccc2Cl)c2nnn(C(C)C)c2n1 | 31 µM | > 100 µM |
| CC[C@H](CO)Nc1nc(NCc2ccc(Cl)c(N)c2N)c2nnn(C(C)C)c2n1 | 45 µM | > 100 µM |
| CC(C)[C@H](CO)Nc1nc(NCc2ccc(Cl)c(N)c2N)c2nnn(C(C)C)c2n1 | 34 µM | > 100 µM |
| CC[C@H](CO)Nc1nc(Nc2ccccc2)c2nnn(C(C)C)c2n1 | 29 µM | 70 µM |
| CC[C@H](CO)Nc1nc(Nc2cc(N)cc(Cl)c2)c2nnn(C(C)C)c2n1 | 28 µM | 75 µM |
| CC(C)[C@H](CO)Nc1nc(NCc2cc(O)c(Cl)cc2O)c2nnn(C(C)C)c2n1 | 8 µM | > 100 µM |
| CC(=O)c1ccccc1CNc1nc(NCCO)nc2c1nnn2C | 70 µM | > 100 µM |
| Cn1nnc2c(Nc3ccc(Cl)c(C(=O)O)c3)nc(NCCO)nc21 | 43 µM | > 100 µM |
| Cn1nnc2c(Nc3ccc(Cl)cc3)nc(NCCO)nc21 | > 100 µM | > 100 µM |
| Cc1cccc(CNc2nc(NCCO)nc3c2nnn3C)c1O | 85 µM | > 100 µM |
| CC[C@H](CO)Nc1nc(NCc2ccccc2)c2nnn(C)c2n1 |  | > 100 µM |
| Cc1cccc(CNc2nc(N[C@@H](CO)C(C)C)nc3c2nnn3C(C)C)c1O | 18 µM | 55 µM |

| Compound | IC50 (p34^cdc2/cyclin B (CDC2)) | IC50 (IκB-α kinase) |
| --- | --- | --- |
| CC[C@H](CO)Nc1nc(NCc2ccccc2)c2nnn(C(C)C)c2n1 [2-[1(R)-Hydroxymethylpropylamino]-6-benzylamino-9-isopropyl-8-azapurine] |  | > 100 µM |
| Cn1nnc2c(Nc3cccc(Cl)c3)nc(NCCO)nc21 |  | > 100 µM |
| CC(C)n1nnc2c(NCc3ccccc3)nc(N(CCO)CCO)nc21 | 95 µM | > 100 µM |
| Cn1nnc2c(NCc3ccc(Cl)c(N)c3N)nc(NCCO)nc21 | 68 µM | > 100 µM |
| CC(C)[C@H](CO)Nc1nc(NCc2ccccc2)c2nnn(C)c2n1 | 50 µM | > 100 µM |
| CC(C)[C@H](CO)Nc1nc(NCc2ccc(Cl)c(N)c2)c2nnn(C(C)C)c2n1 | 30 µM | > 100 µM |
| CC(C)[C@H](CO)Nc1nc(Nc2cc(N)cc(Cl)c2)c2nnn(C(C)C)c2n1 | 27 µM | 80 µM |
| CC[C@H](CO)Nc1nc(N(C)CCc2ccc(O)c(O)c2)c2nnn(C(C)C)c2n1 | > 100 µM | > 100 µM |
| CC[C@H](CO)Nc1nc(NCc2ccccc2OC(C)=O)c2nnn(C(C)C)c2n1 | 19 µM | > 100 µM |
| CC[C@H](CO)Nc1nc(NCc2cccc(C)c2O)c2nnn(C(C)C)c2n1 | 34 µM | 80 µM |
| CC[C@H](CO)Nc1nc(NCc2ccc(O)c(O)c2)c2nnn(C(C)C)c2n1 | 40 µM | > 100 µM |
| CN(Cc1ccc(O)c(O)c1)c1nc(NCCO)nc2c1nnn2C |  | > 100 µM |
| CC(C)n1nnc2c(NCc3ccccc3)nc(NC3CCC(N)CC3)nc21 (centres unmarked) | 3.7 µM | 48 µM |
| CC[C@H](CO)Nc1nc(N(C)Cc2ccc(O)c(O)c2)c2nnn(C(C)C)c2n1 |  | > 100 µM |
| CC[C@H](CO)Nc1nc(NCc2c(O)cc(OC)cc2O)c2nnn(C(C)C)c2n1 | 17 µM | > 100 µM |
| Cn1nnc2c(Nc3ccc(Br)cc3)nc(NCCO)nc21 | > 100 µM | > 100 µM |
| Cn1nnc2c(Nc3cc(N)cc(Cl)c3)nc(NCCO)nc21 | 50 µM | > 100 µM |
| CC(C)[C@H](CO)Nc1nc(N(C)CCc2ccc(O)c(O)c2)c2nnn(C(C)C)c2n1 |  | > 100 µM |
| CC(C)[C@H](CO)Nc1nc(Nc2ccc(C(=O)O)c(Cl)c2)c2nnn(C(C)C)c2n1 | 25 µM |  |
| COc1cc(O)c(CNc2nc(NCCO)nc3c2nnn3C)cc1O | 22 µM |  |
| COc1cc(O)c(CNc2nc(NCCO)nc3c2nnn3C)c(O)c1 | 18.2 µM |  |
